Results taken from patent publication US20110098257A1, “DERIVATIVES OF 4- OR 5-AMINOSALICYLIC ACID” (ANTIBE THERAPEUTICS INC., priority 2005, published 2011).

Assays:
[1] = system: leukocyte adherence in mesenteric post-capillary venules; experiment: Leukocyte adherence to the vascular endothelium in vivo (intravital microscopy, aspirin-induced); design: species or system Rats
Method: Leukocyte adherence was studied using intravital microscopy, as described in detail previously (Wallace et al., (1993) Am. J. Physiol. 265: 993-998, incorporated hereto by reference). Rats were anesthetized with pentobarbital sodium (60 mg/kg i.p.) and cautery incisions were made along the abdominal region. A tracheotomy was performed to facilitate breathing. The rats were placed in a supine position, and a segment of the mesentery was exteriorized through the abdominal incision. The mesentery was carefully placed over an optically clear viewing pedestal that allowed for trans-illumination of a 2-cm^2 segment of tissue. All exposed tissue was covered with saline-soaked gauze to minimize dehydration. The temperature of the pedestal was kept at 37° C. and the mesentery was superfused with warmed bicarbonate-buffered saline (pH 7.4). An intravital microscope (Nikon L25/0.35) and a ×10 eyepiece were used to observe the mesenteric microcirculation. Post-capillary venules with diameters ranging from 20 to 40 μm were selected for the study. A video camera mounted on the microscope (Panasonic™ digital 5000) projected the image onto a monitor, and the images were recorded for playback analysis using a videocassette recorder. Images of the mesenteric microcirculation were recorded 5 minutes prior to aspirin administration (baseline), at the time of aspirin administration (time 0-5) and every 15 minutes for 60 minutes. Leukocyte adherence was blindly quantified from videotaped images of the vessels made over 5-min periods as the number of leukocytes that remained stationary along the vessel wall for 30 s or more (expressed per 100 μm venule length). Groups of rats (at least 5 in each) were pretreated with Compound XXXV (130 mg/kg), Compound XXVII (100 mg/kg), mesalamine (50 mg/kg), or vehicle 60 min prior to aspirin (or vehicle) administration. These drugs were given intragastrically. In some experiments, rats were treated with glibenclamide (10 mg/kg i.p.) or vehicle 30 min prior to administration of these compounds.

[2] = system: mice having TNBS-induced colitis; experiment: TNBS-induced colitis in mice (disease activity score, colonic MPO activity); assay type: in vivo, Balb/c mice
Method: A standard experimental animal model of colitis induced by intracolonic administration of 2,4,6-trinitrobenzene sulfonic acid (TNBS) to mice is used in the following example. A detailed description of this model has been published (Santucci et al. (2003) Gastroenterology 124:1381-94) and is incorporated herein by reference. Briefly, 6-8 week old Balb/c mice were given TNBS intracolonically at a dose of 1.5 mg in 0.1 mL of 30% ethanol. The mice were randomized to the various treatment groups (n=6 per group). Beginning one hour later and continuing every 12 h for 5 days, the mice were treated orally with vehicle (1% carboxymethylcellulose (CMC)), 5-ASA (mesalamine) (25, 50 or 75 mg/kg) or with equimolar doses of 2-hydroxy-5-amino-benzoic acid 4-(thioxo-5H-[1,2]dithiol-3-yl)-phenyl ester hydrochloride (Compound XXXV) (130 mg/kg), or with […] (100 mg/kg), 50% (66 mg/kg) and 25% (33 mg/kg) of that dose. The mice were evaluated (blindly) on the final day of the study for the presence of diarrhea and fecal occult blood, and their body weights were measured. […] After sacrifice, a sample of the colon was excised for measurement of myeloperoxidase (MPO) activity, as a marker of granulocyte infiltration. All results were compared to those obtained with healthy mice as well.
FIGS. 3 and 4 show the Disease Activity Index and MPO activity, respectively, using the same experimental animal model of colitis as described above, in which Compound XXXV (130 mg/kg) was compared to equimolar doses of its two constituents, mesalamine (50 mg/kg) and 5-p-hydroxyphenyl-[…] (ADT-OH) (80 mg/kg), and a mixture of mesalamine (50 mg/kg) and ADT-OH (80 mg/kg). *p<0.05 versus the vehicle-treated group. Each group consisted of at least 5 rats.
FIGS. 6 and 7 show the Disease Activity Index and MPO, respectively, using the same experimental animal model of colitis as described above, in which Compound XXVII (100 mg/kg) was compared to equimolar doses of its two constituents, mesalamine (50 mg/kg) and 4-hydroxythiobenzamide (4-HTB) (50 mg/kg), mesalamine alone (50 mg/kg) and 4-HTB alone (50 mg/kg). *p<0.05 versus the vehicle-treated group. Each group consisted of at least 5 rats.
The same model was used as described above. In this example, the effects of mesalamine (50 mg/kg) were compared to those of equimolar doses of Compound XXXV. In addition to measuring the severity of colitis by measuring disease activity score and MPO activity, tissues were processed for measurement of a number of genes for inflammatory cytokines and other mediators.

SMILES: Nc1ccc(O)c(C(=O)Oc2ccc(-c3cc(=S)ss3)cc2)c1 [Compound XXXV, 5-Amino-2-hydroxy-benzoic acid 4-(5-thioxo-5H-[1,2]dithiol-3-yl)-phenyl ester]
- aspirin-induced leukocyte adherence with glibenclamide pretreatment ([1]; glibenclamide 10 mg/kg i.p. 30 min prior to the compound, compound plus aspirin, FIG. 19): glibenclamide reversed the inhibitory effect
- aspirin-induced leukocyte adherence, final time period ([1]; minutes 60-65, Compound XXXV 130 mg/kg, Compound XXVII 100 mg/kg, FIG. 20): suppress aspirin-induced leukocyte adherence
- aspirin-induced leukocyte adherence, final time period, with glibenclamide pretreatment ([1]; minutes 60-65, glibenclamide 10 mg/kg i.p., FIG. 20): glibenclamide pretreatment to reverse this inhibitor effect
- aspirin-induced increase in leukocyte adherence ([1]; pretreatment: Compound XXXV 130 mg/kg or mesalamine 50 mg/kg intragastrically 60 min prior to aspirin, glibenclamide 10 mg/kg i.p., FIG. 19): prevented the aspirin-induced increase in leukocyte adherence
- Disease Activity Index ([2]; Compound XXXV 130 mg/kg vs mesalamine 50 mg/kg, ADT-OH 80 mg/kg and their mixture, FIG. 3): almost twice as effective as either mesalamine alone, ADT-OH alone or a mixture of mesalamine and ADT-OH
- MPO activity (granulocyte infiltration) ([2]; Compound XXXV 130 mg/kg, FIG. 4): significantly reduced inflammation
- every endpoint of FIGS. 7-14 (MPO activity, disease activity score, mRNA expression) ([2]; dose equimolar to mesalamine 50 mg/kg, compared with mesalamine): superior to mesalamine in every endpoint
- Disease Activity Score ([2]; dose-ranging, oral every 12 h for 5 days, equimolar doses of 50 mg/kg and 75 mg/kg, compared with mesalamine, FIG. 1): superior to mesalamine in reducing the activity score
- myeloperoxidase (MPO) activity ([2]; dose-ranging, oral every 12 h for 5 days, highest doses tested, FIG. 2): significantly reduced (almost in half)
